Assay results taken from patent publication US5447912A, “Erection-inducing methods and compositions” (priority 1993, dated 1995).
“Also recorded” adds a separate entry of the source. Where no end group is shown, it is not given here.

Tests used:
[1] = tested on: males suffering from impotence of which severe atherosclerosis is a cause; conditions: background statement; cited from earlier work
human males [2] = conditions: cited from earlier work; for priapism (background): treatment of impotence
[3] = tested on: male suffering from impotence, which is substantially only neurogenic or psychogenic; conditions: cited from earlier work; for erection after intracavernosal injection where severe atherosclerosis is not involved (background): injection into a corpus cavernosum
[4] = tested on: normal male (males not suffering from erectile insufficiency); conditions: cited from earlier work
[5] = tested on: males suffering from impotence of which severe atherosclerosis is a cause; assay: Intracavernosal injection coupled with sexual stimulation in males with impotence of which severe atherosclerosis is a cause; type: in vivo, human
Protocol: To minimize side-effects when VIP is employed in such a composition, it is preferred that less than about 60 μg of VIP be administered.
Thus, between about 0. […] If necessary, the time between injection and sexual stimulation may be longer, up to several hours.

[6] = tested on: male suffering from impotence, which is substantially only neurogenic or psychogenic; assay: Intracavernosal injection coupled with sexual stimulation in males with impotence that is substantially only neurogenic or psychogenic; type: in vivo, human; conditions: for time to erection sufficient for vaginal penetration: 1 ml of 30 μg/ml in phosphate buffered saline, after tourniquet release (5-10 minutes after injection) and sexual stimulation; for dose with which virtually all males achieve an erection sufficient for vaginal penetration: intracavernosal injection in physiologically acceptable diluent; for dose with which virtually all males achieve an erection sufficient for vaginal penetration / dose as low as which many males achieve an erection sufficient for vaginal penetration: coupled with sexual stimulation; for dose as low as which many males achieve an erection sufficient for vaginal penetration: intracavernosal injection
Protocol: A preferred composition to effect an erection in male suffering from impotence, which is substantially only neurogenic or psychogenic, in accord with the methods herein, is a solution of PHM or VIP at 30 μg/ml in phosphate buffered saline at pH between about 2 and about 4.5, preferably between about 2 and about 3.5 and most preferably about 3, with the PHM or VIP the only substance in the solution that is pharmacologically active in inducing an erection. Preferably 1 ml of the preferred composition is administered as a bolus by injection into a corpus cavernosum while the penis is constricted at its base with a tourniquet. About 5-10 minutes after the injection, the tourniquet is released and, if not already started before the tourniquet is released, sexual stimulation is begun. […] The composition, however, the time between administration and sexual stimulation may be longer, if necessary.

human males [7] = assay: Side effects of intracavernosal injection to induce an erection; type: in vivo

Molecule | induction of erection in impotence due to severe atherosclerosis (background) [1] | priapism (background) (human males [2]) | erection after intracavernosal injection where severe atherosclerosis is not involved (background) [3] | induction of erection in impotence caused by severe atherosclerosis [5] | time to erection sufficient for vaginal penetration [6] [min] | dose with which virtually all males achieve an erection sufficient for vaginal penetration [6] [µg] | dose as low as which many males achieve an erection sufficient for vaginal penetration [6] [µg] | also measured
CC(COc1ccccc1)N(CCCl)Cc1ccccc1 (centres unmarked) [phenoxybenzamine] | not susceptible to treatment | often results in priapism | cause an erection sufficient for vaginal penetration | – | – | – | – | carcinogenicity (background) (human males [2]; in vivo): is a carcinogen
Cc1ccc(N(CC2=NCCN2)c2cccc(O)c2)cc1 [phentolamine] | not susceptible to treatment | – | causes an erection sufficient for vaginal penetration | – | – | – | – | duration of resulting erection (background) ([3]; intracavernosal injection, severe atherosclerosis not a cause): significantly shorter duration than that induced by intracavernosal injection of papaverine or phenoxybenzamine
COc1ccc(Cc2nccc3cc(OC)c(OC)cc23)cc1OC [papaverine] | ineffective; also recorded: not susceptible to treatment | often results in priapism | cause an erection sufficient for vaginal penetration | – | – | – | – | pain on injection (background) (human males [2]; intracavernosal use): painful, burning sensation in the first two or so minutes after the injection; fibrosis on repeated use (background) (human males [2]; repeated use): undesirable, extensive intracavernous fibrosis
human vasoactive intestinal peptide [VIP] | does not induce erections | – | – | not effective in inducing erections | ≤ 5 | 30 | 10 | erectile response coupled with visual and/or vibratory sexual stimulation ([4]; as little as 1 μm (at 1 μm/ml of diluent) injected into a corpus cavernosum): facilitates full erection; erectile response without sexual stimulation ([4]; injection of up to 20 μm of VIP (at 20 μm/ml of diluent) into a corpus cavernosum, no sexual stimulation): only slight swelling (slight tumescence) of the penis but not an erection; side-effects observed at higher doses (human males [7]; in vivo): hypotension, increased pulse rate, flushing of the face and trunk
peptide N-terminal histidine C-terminal methionineamide (HADGVFTSDFSKLLGQLSAKKYLESLM-NH2; UniProt P01282 81-107, looked up) [PHM] | – | – | – | not effective in inducing erections | ≤ 5 | 30 | 10 | duration of pharmacological effect compared with VIP ([6]; at the same dosage): somewhat longer lasting pharmacological effect than VIP; priapism (human males [7]; induction of an erection with VIP or PHM by intracavernosal injection): does not entail priapism; also recorded: Priapism does not occur
